Experimental data: US20240116985A1, “STAPLED PEPTIDES AND METHODS THEREOF” (priority 2020, published 2024)
Where two headings read alike, the source gives them in different places.

Columns and labels:
[1] = target: T1, full-length beta-Catenin (Uniprot ID P35222) (Homo sapiens, UniProt P35222); test: Fluorescence polarization IC50 (beta-catenin / 5FAM-TCF4 10-53 competition); type: binding; conditions: read-out: beta-Catenin FP IC50
T1 construct: 10 nM full-length beta-Catenin (Uniprot ID P35222)
T1 sequence (P35222 1-781): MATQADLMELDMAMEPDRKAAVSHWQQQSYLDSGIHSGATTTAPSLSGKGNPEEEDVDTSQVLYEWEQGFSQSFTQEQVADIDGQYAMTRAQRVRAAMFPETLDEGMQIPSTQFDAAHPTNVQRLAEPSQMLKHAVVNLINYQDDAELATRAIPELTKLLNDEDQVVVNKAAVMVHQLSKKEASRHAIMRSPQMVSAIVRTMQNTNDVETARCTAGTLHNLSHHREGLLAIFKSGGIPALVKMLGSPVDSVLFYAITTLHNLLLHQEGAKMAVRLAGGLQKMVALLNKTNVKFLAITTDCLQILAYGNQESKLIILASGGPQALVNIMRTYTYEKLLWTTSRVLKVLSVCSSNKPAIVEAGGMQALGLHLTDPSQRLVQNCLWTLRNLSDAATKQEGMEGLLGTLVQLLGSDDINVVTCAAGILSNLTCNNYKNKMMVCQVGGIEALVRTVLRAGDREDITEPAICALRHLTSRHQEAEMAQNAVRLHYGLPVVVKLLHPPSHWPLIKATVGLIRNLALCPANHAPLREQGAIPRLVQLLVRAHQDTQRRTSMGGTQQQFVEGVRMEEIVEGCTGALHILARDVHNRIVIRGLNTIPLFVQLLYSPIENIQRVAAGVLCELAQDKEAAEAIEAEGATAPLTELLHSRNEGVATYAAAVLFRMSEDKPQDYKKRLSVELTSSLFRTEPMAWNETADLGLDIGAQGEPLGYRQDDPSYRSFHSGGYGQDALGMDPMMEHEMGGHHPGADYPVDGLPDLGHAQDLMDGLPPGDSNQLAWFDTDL

[2] = target: T2, beta-catenin/TCF4 engagement (Homo sapiens, UniProt P35222); test: Nano-BRET target engagement assay (B-cat-Halo & TCF4-Luc in HEK293 cells); type: cell-based; conditions: absolute IC50; read-out: NanoBRET Abs IC50
T2 construct: expressed in transfected cells; host or cells: HEK293
T2 sequence (P35222 1-781): T1 sequence (P35222 1-781)

[3] = system: TCF/LEF luciferase Reporter in DLD1 cells; test: TCF reporter assay (DLD1 TCF/LEF luciferase reporter, Bright-Glo); type: cell-based; conditions: absolute IC50
From the text: Those skilled in the art will appreciate that other suitable reagents may be utilized and various parameters may be adjusted.
DLD1 reporter cell line was generated by using TCF/LEF luciferase Reporter Lentivirus (BPS Bioscience Catalog #79787). Parental DLD1 cells (ATCC@ CCL-221) were transfected with the lentivirus and followed by 3-day puromycin selection. Single clone was selected for Reporter assay.
On Day 1, cultured cells in flasks that are no more than about 60-70% confluent were washed with PBS and typsinized in 3 mL/T75 until cells were free floating. Spin down cells for 5 minutes at 1100RPM. While cells spin, determine the number of plates (3 compounds per plate) needed. After spinning, aspirate the supernatant gently and add 10 mL media (RPMI+4% FBS), and re-suspend and mix the cells gently. Count the cells twice in the cell counter Countess and take average of both the counts, and determine how many cells are needed. After plating cells at 5000 cells/well, seal with aerseal film. 90 uL cells/well. Incubate at 37° C. overnight, tap gently to mix and don't stack plates.
On Day 2, compounds were added. Stock solution was 10 mM. Make the DMSO containing media by adding 36 uL DMSO to 10 mL of media. Make the dilution wells by transferring 100 uL DMSO+Media into rows B-F of a protein LoBind 96-well plate. Row G is empty. Add any extra DMSO+media to row H. Transfer 4 uL of stock solution to Row A. One compound per column. Add 196 uL media to Row A, no DMSO in the media. Concentration of Row A was 200 uM. Mix well and do a 6 pt, 1:2 serial dilution, mix ×10 per transfer and change tips before each transfer. Removed excess volume from final well (row F) and discard. Transfer 10 uL of the compound containing media to cells with a multichannel according to plate maps. Add 60 uL DMSO containing media to the DMSO wells. The edge wells were typically not used in the assay and could be ignored if needed or replaced with PBS, but there typically were liquids in the wells. Cover plates with breathable plate sealer and incubate overnight.
A 96-well plate may be utilized to prepare dilution series for up to 12 compounds, each with several concentrations (e.g., 200, 100, 50, 25, 12.5, 6.25 and 0 uM; can be utilized as 100× depending on final test concentrations).
0 uM is the DMSO control for the whole plate. Edge well filled with 90 uL cells+10 uL DMSO containing media.
On Day 3, luciferase levels were assessed using Bright-Glo (Promega). Equilibrate Bright-Glo to room temperature before addition. 7 mL of mixed Bright-Gbo per plate. Unused Bright-Glo could be store at −80° C. Reconstituted reagent can be stored for up to 1 month at −80° C., or after one freeze-thaw. When ready to read, remove plates from incubator and let sit at room temperature for 15 minutes. Typically stagger taking out plates if reading multiple plates before adding the Bright-Glo. Add 90 uL/well Bright-Glo and shake gently for 3 minutes. Read luminescence on GloMax immediately using ‘BrightGlo’ programs.
Cellular activity was assessed using CTG. Equilibrate CTG reagents to room temperature. Equilibrate plates to room temp, e.g. 15 min. Use same time length for all plates. Add CTG reagent, 25 uL if using undiluted, or 90 uL if diluted 1 to 4. Shake for 2 min to induce cell lysis. Allow plate to incubate at RT for 10 min to stabilize lumine sent signal. Read luminesence using program ‘CellTiter-Glo’. Use Prism to find the Absolute IC50 (AbsIC50=X[50]) of each compound.

[4] = read-out: DLD1 reporter assay Abs IC50
[5] = read-out: DLD1 4% Abs IC50, DLD1 reporter, 4%

Row | IC50 ([1]; fluorescence polarization) [µM] | IC50 [2] [µM] | IC50 [1] [µM] | IC50 [3, 4] [µM] | IC50 [3, 5] [µM] | SMILES | IC50 ([3]; read-out: DLD1 4% Abs IC50, DLD1 reporter assay, 4%) [µM]
1 |  | 23.6 | 0.005 | > 20 |  | CC(=O)N1CCC[C@]12CC=CCCCC1(CCCC=CCCCOC(=O)N3CC[C@@](C(=O)N[C@@H](Cc4ccsc4)C(=O)N[C@@H](Cc4csc5ccccc45)C(=O)N[C@@H](CCC(N)=O)C(=O)O)(C3)NC(=O)[C@H](CC(N)=O)NC(=O)[C@H](Cc3ccccc3)NC(=O)[C@H](C)NC(=O)[C@H](C)NC(=O)[C@H](CC(=O)O)NC(=O)[C@H](CC(=O)O)NC1=O)NC(=O)[C@H](CC(C)(C)C)NC(=O)[C@H](CC(=O)O)NC2=O (stereo partly drawn) [I-1025, Ac-PL3-Asp-Npg-B5-Asp-Asp-Ala-Ala-Phe-Asn-PyrS2-3Thi-BztA-Gln-OH] | 
2 |  | 16.7 | 0.005 | > 20 |  | CC(=O)N1CCC[C@]12CC=CCCCC1(CCCC=CCCCOC(=O)N3CC[C@@](C(=O)N[C@@H](Cc4ccsc4)C(=O)N[C@@H](Cc4csc5ccccc45)C(=O)N[C@@H](CCC(N)=O)C(=O)O)(C3)NC(=O)[C@H](CC(N)=O)NC(=O)[C@H](Cc3ccccc3)NC(=O)[C@H](C)NC(=O)[C@H](C)NC(=O)[C@H](CN(CC(=O)O)CC(F)(F)F)NC(=O)[C@H](CC(=O)O)NC1=O)NC(=O)[C@H](CC(C)(C)C)NC(=O)[C@H](CC(=O)O)NC2=O (stereo partly drawn) [I-1026, Ac-PL3-Asp-Npg-B5-Asp-TfeGA-Ala-Ala-Phe-Asn-PyrS2-3Thi-BztA-Gln-OH] | 
3 | 0.033 | 11.5 |  | 4.9 |  | CCNC(=O)[C@H](CCC(N)=O)NC(=O)[C@H](Cc1csc2ccccc12)NC(=O)[C@H](Cc1ccccc1Cl)NC(=O)[C@]12CCN(C1)C(=O)OCCCC=CCCCC1(CCCC=CC[C@]3(CCCN3C(C)=O)C(=O)N[C@@H](CC(=O)O)C(=O)N[C@@H](CC(C)(C)C)C(=O)N1)C(=O)N[C@@H](CC(=O)O)C(=O)N[C@@H](CN(CC(=O)O)CC(F)(F)F)C(=O)N[C@@H](C)C(=O)N[C@@H](C)C(=O)N[C@@H](Cc1ccccc1)C(=O)N[C@@H]([C@@H](C)O)C(=O)N2 (stereo partly drawn) [I-1240, Ac-PL3-Asp-Npg-B5-Asp-TfeGA-Ala-Ala-Phe-Thr-PyrS2-2C1F-BztA-Gln-NHEt] | 
4 | 0.019 | 15.7 |  | 3.8 |  | CC(=O)N1CCC[C@]12CC=CCCCC1(CCCC=CCCCOC(=O)N3CC[C@@](C(=O)N[C@@H](Cc4ccccc4Cl)C(=O)N[C@@H](Cc4csc5ccccc45)C(=O)N[C@H](CO)[C@@H](C)O)(C3)NC(=O)[C@H]([C@@H](C)O)NC(=O)[C@H](Cc3ccccc3)NC(=O)[C@H](C)NC(=O)[C@H](C)NC(=O)[C@H](CN(CC(=O)O)CC(F)(F)F)NC(=O)[C@H](CC(=O)O)NC1=O)NC(=O)[C@H](CC(C)(C)C)NC(=O)[C@H](CC(=O)O)NC2=O (stereo partly drawn) [I-1241, Ac-PL3-Asp-Npg-B5-Asp-TfeGA-Ala-Ala-Phe-Thr-PyrS2-2C1F-BztA-Thro1] | 
5 | 0.03 | > 20 |  | 4.8 | 3.8 | CC(=O)N1CCC[C@]12CC=CCCCC1(CCCC=CCCCOC(=O)N3CC[C@@](C(=O)N[C@@H](Cc4ccccc4Cl)C(=O)N[C@@H](Cc4csc5ccccc45)C(=O)N[C@@H](C)CO)(C3)NC(=O)[C@H]([C@@H](C)O)NC(=O)[C@H](Cc3ccccc3)NC(=O)[C@H](C)NC(=O)[C@H](C)NC(=O)[C@H](CN(CC(=O)O)CC(F)(F)F)NC(=O)[C@H](CC(=O)O)NC1=O)NC(=O)[C@H](CC(C)(C)C)NC(=O)[C@H](CC(=O)O)NC2=O (stereo partly drawn) [I-1242, Ac-PL3-Asp-Npg-B5-Asp-TfeGA-Ala-Ala-Phe-Thr-PyrS2-2C1F-BztA-Alao1] | 
6 | 0.018 | 17.7 |  | 13.9 | 15.9 | CCNC(=O)[C@H](CO)NC(=O)[C@H](Cc1csc2ccccc12)NC(=O)[C@H](Cc1ccccc1Cl)NC(=O)[C@]12CCN(C1)C(=O)OCCCC=CCCCC1(CCCC=CC[C@]3(CCCN3C(C)=O)C(=O)N[C@@H](CC(=O)O)C(=O)N[C@@H](CC(C)(C)C)C(=O)N1)C(=O)N[C@@H](CC(=O)O)C(=O)N[C@@H](CC(=O)O)C(=O)N[C@@H](C)C(=O)N[C@@H](C)C(=O)N[C@@H](Cc1ccccc1)C(=O)N[C@@H]([C@@H](C)O)C(=O)N2 (stereo partly drawn) [I-1244, Ac-PL3-Asp-Npg-B5-Asp-Asp-Ala-Ala-Phe-Thr-PyrS2-2C1F-BztA-Ser-NHEt] | 
7 | 0.009 | 12.2 |  | 7.3 | 4.1 | CC(=O)N1CCC[C@]12CC=CCCCC1(CCCC=CCCCOC(=O)N3CC[C@@](C(=O)N[C@@H](Cc4ccccc4Cl)C(=O)N[C@@H](Cc4csc5ccccc45)C(=O)N[C@H](CO)[C@@H](C)O)(C3)NC(=O)[C@H]([C@@H](C)O)NC(=O)[C@H](Cc3ccccc3)NC(=O)[C@H](C)NC(=O)[C@H](C)NC(=O)[C@H](CC(=O)O)NC(=O)[C@H](CC(=O)O)NC1=O)NC(=O)[C@H](CC(C)(C)C)NC(=O)[C@H](CC(=O)O)NC2=O (stereo partly drawn) [I-1245, Ac-PL3-Asp-Npg-B5-Asp-Asp-Ala-Ala-Phe-Thr-PyrS2-2C1F-BztA-Thro1] | 
8 | 0.013 | 24.3 |  | 15.9 | 16.2 | CC(=O)N1CCC[C@]12CC=CCCCC1(CCCC=CCCCOC(=O)N3CC[C@@](C(=O)N[C@@H](Cc4ccccc4Cl)C(=O)N[C@@H](Cc4csc5ccccc45)C(=O)N[C@@H](C)CO)(C3)NC(=O)[C@H]([C@@H](C)O)NC(=O)[C@H](Cc3ccccc3)NC(=O)[C@H](C)NC(=O)[C@H](C)NC(=O)[C@H](CC(=O)O)NC(=O)[C@H](CC(=O)O)NC1=O)NC(=O)[C@H](CC(C)(C)C)NC(=O)[C@H](CC(=O)O)NC2=O (stereo partly drawn) [I-1246, Ac-PL3-Asp-Npg-B5-Asp-Asp-Ala-Ala-Phe-Thr-PyrS2-2C1F-BztA-Alao1] | 

Row | SMILES | IC50 ([1]; fluorescence polarization) [µM] | IC50 [2] [µM] | IC50 [1] [µM] | IC50 [3, 4] [µM] | IC50 [3, 5] [µM] | IC50 ([3]; read-out: DLD1 4% Abs IC50, DLD1 reporter assay, 4%) [µM]
9 | CC(=O)N1CCC[C@]12CC=CCCCC1(CCCC=CCCCOC(=O)N3CC[C@@](C(=O)N[C@@H](Cc4ccsc4)C(=O)N[C@@H](Cc4csc5ccccc45)C(=O)N[C@H](CO)[C@@H](C)O)(C3)NC(=O)[C@H](CC(C)C)NC(=O)[C@H](Cc3ccccc3)NC(=O)[C@H](C)NC(=O)[C@H](C)NC(=O)[C@H](Cc3ccccc3C(=O)O)NC(=O)[C@H](CC(=O)O)NC1=O)NC(=O)[C@H](CC(C)(C)C)NC(=O)[C@H](CC(=O)O)NC2=O (single isomer, unassigned) [I-1671, Ac-PL3-Asp-Npg-B5-Asp-2COOHF-Ala-Ala-Phe-Leu-PyrS2-3Thi-BztA-Thro1] | 0.028 | 8 |  |  |  | 1.7
